≈ marks a conversion by molar mass, not a printed value. Like-named read-outs stand apart in the source and are kept apart here. Values belong to the compound of their own block, whether it stands above or below them.
Legend:
murine SR-BI, isoform 1 = target: T1, murine SR-BI, isoform 1 (Mus musculus, UniProt Q61009); assay: DiI-HDL uptake assay (primary assay); format: cell-based; details: ldlA[mSR-BI] cells, 3 hours with compound
T1 construct: expressed in transfected cells; host or cells: ldlA[mSR-BI], Chinese hamster ovary (CHO) cells lacking LDL receptor (Krieger Laboratory)
T1 sequence (Q61009 1-509): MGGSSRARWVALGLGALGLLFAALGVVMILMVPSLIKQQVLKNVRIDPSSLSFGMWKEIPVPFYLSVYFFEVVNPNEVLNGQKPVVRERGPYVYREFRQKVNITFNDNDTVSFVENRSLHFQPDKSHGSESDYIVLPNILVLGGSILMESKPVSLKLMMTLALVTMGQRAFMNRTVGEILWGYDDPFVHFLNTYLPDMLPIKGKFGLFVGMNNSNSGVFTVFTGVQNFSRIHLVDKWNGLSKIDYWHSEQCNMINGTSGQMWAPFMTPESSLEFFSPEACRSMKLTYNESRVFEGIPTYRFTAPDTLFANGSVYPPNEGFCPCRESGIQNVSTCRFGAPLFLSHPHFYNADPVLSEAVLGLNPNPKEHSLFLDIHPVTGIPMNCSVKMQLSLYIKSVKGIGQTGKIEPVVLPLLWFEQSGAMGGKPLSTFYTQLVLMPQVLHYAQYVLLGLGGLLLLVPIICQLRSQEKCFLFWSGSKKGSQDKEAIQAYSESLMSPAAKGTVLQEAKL
Experimental: The following cell lines were used in this study: • ldlA[mSR-BI] is a Chinese hamster ovary (CHO) cell line that overexpresses murine SR-BI, isoform 1 (NP_058021) and was obtained from the (Krieger Laboratory). This cell line was used for the primary assay and several secondary assays. […] Assays DiI-HDL Uptake Assay (Primary Assay AID Nos. 488896, 493194, 540354 588392, 588553, 588548, 588754, 588828, 588833)
ldlA[mSR-BI] cells were plated into 384-well plates at 30 μl per well and incubated overnight. As a measurable surrogate for cholesterol uptake, human HDL particles were treated with the lipophilic fluorescent dye DiI and exposed to ldlA[mSR-BI] cells in lipoprotein-free media (Ham's F12/0.5% fatty acid-free Bovine Serum Albumin (BSA)/25 mM HEPES pH 7.4 plus 10 μg protein/ml DiI-HDL). Cells took up the DiI via SR-BI over 3 hours in the presence of compound. After significant uptake of the DiI, the cells became fluorescent. The level of fluorescence correlates with the amount of DiI uptake and can be measured with a standard plate reader (here a PerkinElmer EnVision plate reader was used). The uptake of lipid (represented by DiI) was inhibited by the positive control compound BLT-1 or with an excess of HDL untreated with DiI. Primary HTS data were analyzed in Genedata Screener Assay Analyzer, and were normalized against DMSO and the positive control (1 μM BLT-1). For the HTS, the average of two replicates was used to rank order activity and to choose compounds for retests. For dose studies, percent (%) activity was determined for each concentration and the concentration response curves (CRCs) were generated with Genedata Condeseo.
To identify novel inhibitors, SR-BI-mediated lipid uptake was measured in an engineered cell line that minimized potential uptake by other mechanisms, including via the LDL receptor (1). ldlA[mSR-BI] cells overexpress murine isoform 1 and selectively take up HDL lipid at similar levels as “has been reported for cultured mouse adrenal cells, perfused organs, and liver, adrenal gland and ovary in vivo” (1). This primary cell-based assay was used in a pilot screen that identified BLTs 1 through 5. The assay was slightly modified from the original protocol of Nieland et al. to increase throughput and to ease automation procedures.
Briefly, the plate reader was switched to a Perkin-Elmer EnVision, several washing steps were eliminated, and the cell number per well was reduced without impacting the robustness of the assay. The automated assay was first tested with a validation set of 2,240 compounds. These compounds were tested in duplicate with in-plate neutral (DMSO) and positive (1 μM BLT-1) controls. Robustness, reproducibility, and variability parameters were analyzed before initiating the full HTS. The HTS was run over the course of several weeks. Data were normalized relative to controls, and plate patterns were corrected using a multiplicative algorithm in Genedata Screener Assay Analyzer. For each compound, the average of the two replicates was determined and used for subsequent analysis.

hepatitis C virus (HCV) = assay: In vitro testing with Huh-7.5 cells infected with HCV; format: cell-based; details: for inhibition of HCV replication (in words): Huh-7.5 cells infected with Jcl 378-1 TagRFP (MOI=0.1), 3 dpi
Experimental: A series of tests were conducted using the compound of Formula II (CID53393835/ML279), other known inhibitors of SR-BI and controls with cells infected with hepatitis C virus (HCV). The cells (Huh-7.5 cells infected with Jcl 378-1 TagRFP (MOI=0.1) 3 dpi) were treated with the following SR-BI compounds and controls:
Three different infection protocols were followed: (1) no wash—virus inoculum was removed 4hpi and fresh medium containing compounds added without washing cells; (2) 5× wash—virus inoculum was removed 4hpi, cells were washed 5× with PBS and fresh medium containing compounds added; and (3) no wash Opt—infection were performed in serum-free OptiMem; virus inoculum was removed 4hpi and fresh medium containing compounds added without washing cells. FIG. 90 provides a comparison of the three different infection set-ups. FIG. 91 provides a comparison of two independent experiments.

HCVcc and HCVpp = details: primary human hepatocytes and/or human hepatoma cell lines; cited from earlier work
ldlA[mSR-BI] cells = assay: Cell cytotoxicity assay (CellTiter-Glo)
Experimental: It is possible that a compound will cause cells to decrease HDL-mediated DiI uptake due to nonspecific consequences of cellular toxicity, representing a second class of false positive hits. The cells were treated with compounds for 3 hours or 24 hours, and then cell viability was measured using the CellTiter-Glo Assay (Promega), a luciferase-based reagent that measures cellular ATP levels. The compounds were tested at different concentrations to determine IC50 values. […] Data were normalized against DMSO and the positive control (1 μM BLT-1) in Genedata Assay Analyzer.
All available dry powder samples of the remaining, non-quenching compounds were procured from commercial sources and purities were determined. The compounds obtained were then retested in the primary assay and in cytotoxicity assays. We wanted to rule out any compounds that were cytotoxic, especially in the 3-hour time span of the primary DiI-HDL uptake assay. Therefore, compounds were tested in ldl[mSR-BI] cells for cytotoxicity at 3 hours and 24 hours using the CellTiter-Glo assay (Promega) that measures cellular ATP as a marker of cell viability. […] Compounds were screened for inhibition of endocytosis using labeled transferrin, which is known to bind the transferrin receptor, enter cells by clathrin-mediated endocytosis, and move to endosomes before being recycled to the cell surface.

Solubility in PBS = format: physicochemical; details: PBS pH 7.4, 23° C., 1% DMSO
Experimental: We noticed that the concentration of the probe fluctuated through the course of the assay (data not shown). We believe that this fluctuation is due to the low kinetic solubility of the probe. Thus, we decided to determine the amount of undissolved probe present in the well after it was treated with PBS for a given length of time, relative to the amount of undissolved probe at the start of the assay. The wells were centrifuged and the supernatant was removed after various time points, then acetonitrile was added to dissolve the remaining solid in the wells, and the amount of probe was quantified. […] The stability of the probe was confirmed by measuring stability in human plasma, with >99% remaining after a 5-hour incubation period. […] FIG. 5 summarizes known properties of the probe.

[1] = tested on: endocytosis of transferrin; assay: Transferrin endocytosis assay; format: cell-based, Chinese hamster; details: concentrations up to 35 μM
From the text: Transferrin Endocytosis Assay (SA 3: AID No. 602134)
This assay measures the endocytosis of an independent ligand, transferrin, which is not taken up via SR-BI but by clathrin-mediated endocytosis; thus providing a measure of the selectivity of the inhibitors. Alexa-594-labeled transferrin is taken into the cell via endocytosis and localization of labeled transferrin can be quantitated in the various intracellular compartments. […] Inhibitors of interest should act selectively at SR-BI and should have no activity in this assay.
Cells were pre-treated with compound for 3 hours and then treated with the Alexa-594 transferrin reagent for 30 minutes (Catalog No. T-13343; Invitrogen) in serum-free media. Plates of cells were then placed onto ice, washed with ice cold PBS, and then fixed with 4% paraformaldehyde. In addition, the nuclei were stained with 300 nM 4′,6-diamidino-2-phenylindole (DAPI) (Catalog No. 21490; Invitrogen). The cells were imaged with the Molecular Devices IXM microscope. Translocation measurements were performed using MetaExpress software and normalized for cell number.

SR-BI [2] = target: T2, SR-BI (Mus musculus, UniProt Q61009); assay: HDL binding assay (Alexa 488 HDL); format: cell-based, murine; parameters: expressed in transfected cells; host or cells: ldlA[mSR-BI], Chinese hamster ovary (CHO) cells lacking LDL receptor (Krieger Laboratory); details: Alexa Fluor 488-labeled HDL
T2 sequence (Q61009 1-509): T1 sequence (Q61009 1-509)
Experimental: HDL binding was assessed using Alexa Fluor 488-labeled HDL particles. For this assay, the Alexa 488 dye was directly covalently bound to apolipoprotein components of the HDL particle via primary amines; thus, no transfer of the fluorophore to cell membranes occurs. Instead, direct binding of the HDL particles to SR-BI can be measured. As a positive control, BLT-1, which is known to increase binding, was used at 1 μM. It is possible that a compound can reduce binding of HDL to the receptor, and this would lead to a decrease in signal. This assay is used to characterize the mechanism of action of a particular compound; therefore, any outcome in the assay is acceptable. Data were normalized against DMSO and the positive control (1 μM BLT-1) in Genedata Assay Analyzer.

[3] = hamsters; cited from earlier work
[4] = mice; cited from earlier work
SR-BI [5] = target: T2, SR-BI; details: cited from earlier work

IC50 (murine SR-BI, isoform 1): 1.6 µM
SMILES: C[C@@H](C(=O)NC1CCCC1)N(C(=O)Cn1nnc(-c2ccc3c(c2)OCO3)n1)C1CCCCC1 [(S)-isomer]

SMILES: COc1c(NC(=O)C(=O)c2ccc(OCCN3CCOCC3)c3ccccc23)cc(C(C)(C)C)cc1NS(C)(=O)=O [ITX-5061]
inhibition of HCV replication (in words) (hepatitis C virus (HCV); listed as 9): able to inhibit HCV replication
inhibition of HCV replication (in words) (hepatitis C virus (HCV); listed as SRB1-9): inhibited viral replication
mean fluorescence intensity (MFI) of HCV positive cells (in words) (hepatitis C virus (HCV); dose dependence): this increase was not seen
IC50 (murine SR-BI, isoform 1): 0.254 µM
HCVcc and HCVpp infection (in words) (HCVcc and HCVpp): inhibit HCVcc and HCVpp infection

IC50 (murine SR-BI, isoform 1): 0.00093 µM
SMILES: COCC(=O)N1CCc2cc(-c3csc(NC(=O)c4cc(OC)cc(OC)c4)n3)ccc21 [ML278, reference compound]

SMILES: COc1ccc(-c2nnn(CC(=O)N(C3CCCCC3)C(C)C(=O)NC3CCCC3)n2)cc1OC (centres unmarked) [MLS000888573, reference compound]
IC50 (murine SR-BI, isoform 1): 0.051 µM
IC50 (murine SR-BI, isoform 1; listed as hit compound): 0.058 µM
IC50 (ldlA[mSR-BI] cells; read-out: 3 h CellTiter-Glo IC50, 3 hours treatment): > 35 µM
IC50 (ldlA[mSR-BI] cells; read-out: 24 h CellTiter-Glo cytotoxicity IC50, 24 hours treatment): > 35 µM
solubility (Solubility in PBS): 114 µM (≈ 55.2 µg/mL)
endocytosis of transferrin (in words) [1]: not grossly perturbing cellular membrane trafficking pathways
AC50 (SR-BI [2]): 0.6 µM

SMILES: CC(C)(C)OC(=O)N1CCN(c2ccc(NC(=O)c3cc([N+](=O)[O-])ccc3Cl)cc2)CC1 [R-138329]
HDL-cholesterol (in words) [3]: increased HDL-cholesterol
HDL-cholesterol (in words) [4]: increased HDL-cholesterol

SMILES: COc1ccc(Cl)cc1C(=O)NCCc1ccc(S(=O)(=O)NC(=O)NC2CCCCC2)cc1 [glyburide]
cholesterol efflux inhibition (in words) (SR-BI [5]): relatively weak inhibitor of cholesterol efflux

Reference: patent US9884851B2, “Heterocycle-bisamide inhibitors of scavenger receptor BI” (THE BROAD INSTITUTE, INC., priority 2012, dated 2018)
